Measured values taken from patent US11919858B2, “Aminonapthoquinone compounds and pharmaceutical composition for blocking ubiquitination-proteasome system in diseases” (Calgent Biotechnology Co., Ltd., priority 2015, dated 2024).
pIC50: −log10 of the molar value. Like-named read-outs stand apart in the source and are kept apart here.

Assays:
[1] = test system: human RPMI8226 multiple myeloma; assay: Human RPMI8226 multiple myeloma xenograft in female nude mice (TMU-RPMI8226-e0001); format: in vivo
Description: The 42-day study utilized five groups of mice (n=6) bearing established human PRMI8226 multiple myeloma with mean volumes of ˜85 mm^3 on D1. […] (FIG. 3).

[2] = test system: HCT116 human colorectal adenocarcinoma; conditions: for Logrank Significance: compared to Group 1
Procedure: MPT0L056 was used to evaluate for activity against the HCT116 human colorectal adenocarcinoma.
However, MPT0E028 was administered orally (p.o.) in 1.0% CMC and 0.5% Tween 80 and given dose at 25 mg/kg daily to end schedule.
Each animal was euthanized when the tumors reached the predetermined endpoint size of 1,000 mm^3. The time to endpoint (TTE) for each mouse was calculated by the following equation:
[formula] where TTE is expressed in days, endpoint volume is in mm^3, b is the intercept, and m is the slope of the line obtained by linear regression of a log-transformed tumor growth data set. The data set is comprised of the first observation that exceeded the study endpoint volume and the three consecutive observations that immediately preceded the attainment of the endpoint volume. The calculated TTE is usually less than the day on which an animal is euthanized for tumor size. […] An animal classified as having died from treatment-related (TR) causes or non-treatment-related metastasis (NTRm) causes was assigned a TTE value equal to the day of death. An animal classified as having died from non-treatment-related (NTR) causes was excluded from TTE calculations.
Treatment efficacy was determined from tumor growth delay (TGD), which is defined as the increase in the median TTE for a treatment group compared to the control group: TGD=T−C, expressed in days, or as a percentage of the median TTE of the control group:
[formula] where: • T=median TTE for a treatment group, • C=median TTE for control Group 1.
Treatment efficacy was also determined from the tumor volumes of animals remaining in the study on the last day, and from the number of regression responses. The MTV(n) is defined as the median tumor volume on D59 in the number of animals remaining, n, whose tumors have not attained the endpoint volume.
Treatment may cause a partial regression (PR) or a complete regression (CR) of the tumor in an animal. […] An animal with a CR at the termination of a study is additionally classified as a tumor-free survivor (TFS).
Animals were weighed daily for the first five days, then twice weekly until the completion of the study. The mice were examined frequently for overt signs of any adverse, drug-related side effects. Acceptable toxicity for the MTD of cancer drugs is defined as a group mean BW loss of 20% or less during the test, and not more than one TR death among ten animals. A death is classified as TR if there is evidence of treatment side effects from clinical signs and/or necropsy or from unknown causes during dosing period or within 10 days of the last dose. A death is classified as NTR if there is no evidence that the death was related to treatment side effects.
The logrank test was used to determine the statistical significance of the difference between the TTE values of two groups, except any NTR deaths. Statistical and graphical analyses were performed with Prism 3.03 (GraphPad) for Windows. The two-tailed statistical analyses were conducted at P=0.05. Kaplan-Meier plots show the percentage of animals remaining in the study versus time. The Kaplan-Meier plots use the same data set as the log rank test. The tumor growth curves show the group median tumor volume, on a log scale as a function of time.

[3] = test system: IL-6 production in murine RAW264.7 macrophage cells; assay: IL-6 production in LPS-stimulated RAW264.7 macrophage cells (ELISA); format: cell-based; conditions: Mus musculus, RAW 264.7 cells, pretreated 1 h, LPS (25 ng/mL) 24 h
Procedure: Cell culture. The RAW264.7 mouse macrophage cells were purchased from the Bioresource Collection and Research Center (Hsinchu, Taiwan) and the cells cultured at 37° C. in 5% CO2/95% air in, respectively, 90% Ham's F-12 or Dulbecco's modified Eagle medium, both containing 10% heat-inactivated fetal bovine serum (FBS) (Invitrogen Life Technologies, Carlsbad, CA) and 1% penicillin/streptomycin (Biological Industries, Israel).
IL-6 Determination. To determine the effect of MPT0L056 on the production of cytokine IL-6 from LPS-stimulated cells, RAW 264.7 cells (1×10^6) were plated and pretreated in the presence or absence of MPT0L056 for 1 h, and then stimulated with LPS (25 ng/mL) for 24 h at 37° C. Supernatants were collected and the concentration of cytokines IL-6 was measured by ELISA kit.

[4] = target: ITCH (Homo sapiens, UniProt Q96J02); assay: Blocking of ITCH self-ubiquitination, in vivo assay; format: cell-based; conditions: concentration of 0.5 um and 5 um, FIG. 2
Description: MPT0L056 of the invention was used to test the blocking of ITCH self-ubiquitination. […] [Reference for in vitro assay: Scialpi F, Malatesta M, Peschiaroli A, Rossi M, Melino G, and Bernassola F. Itch self-polyubiquitylation occurs through lysine-63 linkages. Biochem Pharmacol. 2008 Dec. 1; 76(11):1515-21. Reference for in vivo assay: Chang L, Kamata H, Solinas G, Luo J L, Maeda S, Venuprasad K, Liu Y C, and Karin M. The E3 ubiquitin ligase itch couples JNK activation to TNFalpha-induced cell death by inducing c-FLIP(L) turnover. Cell. 2006 Feb. 10; 124(3):601-131

[5] = MPT0L056 25 mg/kg p.o. once every day for 42 days
[6] = MPT0L056 50 mg/kg p.o. once every day for 42 days
[7] = Group 1 vs 4: MPT0L056 100 mg/kg
[8] = Group 4: MPT0L056 100 mg/kg po qd to endpoint
[9] = Group 5: MPT0L056 50 mg/kg po qd to endpoint
[10] = Group 7: MPT0L056 100 mg/kg po qd + MPT0E028 25 mg/kg po qd to endpoint
[11] = Group 8: MPT0L056 50 mg/kg po qd + MPT0E028 25 mg/kg po qd to endpoint

Chain of ITCH (Q96J02 whole entry, species assumed): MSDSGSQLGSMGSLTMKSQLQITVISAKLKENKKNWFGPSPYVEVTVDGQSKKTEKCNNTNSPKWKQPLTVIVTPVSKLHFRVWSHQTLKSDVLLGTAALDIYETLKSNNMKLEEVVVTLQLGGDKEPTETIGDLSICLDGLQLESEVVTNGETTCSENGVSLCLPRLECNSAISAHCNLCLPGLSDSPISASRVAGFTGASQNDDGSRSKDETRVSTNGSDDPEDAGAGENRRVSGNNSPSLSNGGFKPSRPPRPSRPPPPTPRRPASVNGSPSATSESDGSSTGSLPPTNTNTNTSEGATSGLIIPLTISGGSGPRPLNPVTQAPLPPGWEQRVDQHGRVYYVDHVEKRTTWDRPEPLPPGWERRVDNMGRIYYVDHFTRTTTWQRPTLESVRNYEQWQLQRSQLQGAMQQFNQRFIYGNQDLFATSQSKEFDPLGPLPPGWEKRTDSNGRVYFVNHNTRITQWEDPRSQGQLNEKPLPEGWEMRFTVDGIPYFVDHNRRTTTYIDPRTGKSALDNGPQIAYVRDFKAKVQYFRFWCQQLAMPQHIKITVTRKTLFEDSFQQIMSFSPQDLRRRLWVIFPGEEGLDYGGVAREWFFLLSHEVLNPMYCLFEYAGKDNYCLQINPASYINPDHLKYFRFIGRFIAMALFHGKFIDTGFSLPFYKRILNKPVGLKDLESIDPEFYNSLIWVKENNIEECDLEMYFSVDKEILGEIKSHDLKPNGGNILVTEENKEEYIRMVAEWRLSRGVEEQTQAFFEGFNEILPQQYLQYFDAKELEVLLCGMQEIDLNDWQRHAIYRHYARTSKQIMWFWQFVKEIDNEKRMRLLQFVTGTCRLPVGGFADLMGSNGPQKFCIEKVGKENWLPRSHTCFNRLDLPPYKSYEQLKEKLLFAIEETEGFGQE

O=C(Nc1ccncc1)c1ccc(CNC2=C(Cl)C(=O)c3ccccc3C2=O)cc1 [MPT0L056]
antitumor activity [1, 5]: produced significant antitumor activity | mice with complete regression (CR) [1, 5]: Two of six | antitumor activity [1, 6]: produced significant antitumor activity | mice with complete regression (CR) [1, 6]: Two of six | body weight change ([1]; MPT0L056 50 and 25 mg/kg, all doses tested, FIG. 4): without significantly body weight loss | Hazard Ratio [2, 7]: 4.135 | Median survival [2, 7]: 48.55 | Median survival Ratio [2, 7]: 0.4876 | Hazard Ratio ([2]; Group 1 vs 5: 50 mg/kg): 1.959 | Median survival ([2]; Group 1 vs 5: 50 mg/kg): 29.95 | Median survival Ratio ([2]; Group 1 vs 5: 50 mg/kg): 0.7579 | Day of Max % BW Loss [2, 8]: 6 days | MTV (n) Day 59 [2, 8]: 160 mm^3 | Max % BW Loss [2, 8]: −2.3% | Median TTE [2, 8]: 48.5 days | No. of NTR [2, 8]: 0 | No. of TR [2, 8]: 0 | T-C [2, 8]: 25.8 days | antitumor activity (logrank analysis) [2, 8]: produced significant antitumor activity | % TGD ([2]; Group 4: MPT0L056 100 mg/kg po qd to endpoint, 100 mg/kg): 114% | Logrank Significance [2, 8]: ** (** = P < 0.01) | Day of Max % BW Loss [2, 9]: 5 days | MTV (n) Day 59 [2, 9]: 975 mm^3 | Max % BW Loss [2, 9]: −3.8% | Median TTE [2, 9]: 30.0 days | No. of LTTFS [2, 9]: 0 | No. of NTR [2, 9]: 2 | No. of TR [2, 9]: 0 | T-C [2, 9]: 7.3 days | antitumor activity (logrank analysis) [2, 9]: but not 50 mg/kg (P=0.2087), produced significant antitumor activity | % TGD ([2]; Group 5: MPT0L056 50 mg/kg po qd to endpoint, 50 mg/kg): 32% | % TGD [2, 10]: 50% | Day of Max % BW Loss [2, 10]: 5 days | Max % BW Loss [2, 10]: −8.4% | Median TTE [2, 10]: 34.0 days | No. of CR [2, 10]: 0 | No. of LTTFS [2, 10]: 0 | No. of NTR [2, 10]: 0 | No. of PR [2, 10]: 0 | No. of TR [2, 10]: 0 | T-C [2, 10]: 11.3 days | % TGD [2, 11]: 100% | Day of Max % BW Loss [2, 11]: 3 days | Max % BW Loss [2, 11]: −9.5% | Median TTE [2, 11]: 45.3 days | No. of LTTFS [2, 11]: 0 | T-C [2, 11]: 22.6 days | synergistic effect of antitumor activity (logrank analysis) [2, 11]: significant synergistic effect of antitumor activity | Logrank Significance [2, 11]: ** (** = P < 0.01) | pIC50 [3]: 5.92 | blocking of ITCH's in vivo self-ubiquitination [4]: blocks ITCH's in vivo self-ubiquitination
